Reference: PMC12592502, “Unraveling the mechanisms behind the enhanced efficacy of β-lactam-based sideromycins” (Communications Biology, 2025)
≈ marks a conversion by molar mass, not a printed value. Where “and” joins values, the source holds several entries; their conditions need not be identical. Equal values may be shown once.

What was measured:
AmpC (PDC-5) = AmpC (PDC-5) (Pseudomonas aeruginosa, UniProt P24735, R79Q/T105A); assay: biochemical; type: biochemical, P. aeruginosa ATCC 27853
Experimental: The purification of AmpC from the culture supernatant obtained above was conducted as described in the Catwright and Waley protocol[52] using an Affi-gel 10 matrix (Bio-Rad, Hercules, CA, USA) loaded in a column (G-Bioscience, St-Louis, MO, USA). First, the resin was washed with cold deionized water. The resin was then collected and mixed with 20 mL of the 3-aminophenylboronic acid solution (1 M KHCO3 containing 2 g of 3-aminophenyl boronic acid and 2 g of sorbitol) at 4 °C for 1 h, and the pH was maintained at 8 with solid KHCO3. The mixture was loaded onto the column and washed with 10 column volumes of 1 M NaCl/0.5 M sorbitol (pH 7), followed by 10 column volumes of 0.5 M borate (pH 7), and then 10 column volumes of the loading buffer (20 mM triethanolamine HCl/0.5 M NaCl, pH 7). The sample was dialyzed in the loading buffer before being loaded onto the column. The column was washed with the loading buffer until no absorbance was measured at OD280. AmpC was eluted in fractions of 1 mL with 0.5 M borate/0.5 M NaCl pH 7. […] The purity was visualized on a 10% bis-acrylamide gel. Only pure fractions showing a single band at 40 kDa were pooled together and then dialyzed at 4 °C in a KP buffer 0.05 M pH 7 (see Fig. S2). The protein concentration was determined with a Bradford protein reagent (Bio-Rad).
(§1) Enzyme concentrations were 20 nM for AmpC and SHV-1, and 50 nM for OXA-98. Quartz cuvette (FireflySci Inc., Northport, NY) with 1 cm length path and 2 mm inside width was used with an Ultrospec 2100 Pro (Biochrom, Harvard Bioscience Inc., USA) to acquire the kinetic measures. […] The following extinction coefficients (Δε) and wavelengths (λ) were used:
(§2) The steady-state parameters (Km and Kcat) were determined by plotting the initial velocity against substrate concentrations (Michaelis–Menten curve). The Kcat was measured using the Vmax (μM/sec) divided by the total enzyme concentration and the catalytic efficiency was further calculated (Kcat/Km). SHV-1 parameters were determined with three Michaelis–Menten curves of at least seven substrate concentrations, while OXA-98 and AmpC were duplicates of curves of at least seven substrate concentrations. […] Initial velocities were measured at room temperature (25 °C). The Vmax and Km were calculated using least squares fit regression in GraphPad version 10.2.2. Ki was measured using a derivative of IC50 with an adaptation of the Cheng–Prusoff equation[55]. […] The corrected Ki was calculated using this formula: Kicorrected=Ki(observed)/1+S/KmNCF

E. coli BW25113 = assay: MIC, parental strain of Keio mutants; type: cell-based, Escherichia coli
Experimental: All bacterial strains (see description and sources Table S1) were stored at −80 °C, and grown on tryptone soya agar (TSA) at 35 °C. The iron-deprived (ID)-MHBCA (cation-adjusted Muller-Hinton Broth, Becton Dickinson, Mississauga, ON, Canada) medium was prepared as reported by refs. [21],[50]. Briefly, MHBCA was treated with 10% Chelex® 50-100 mesh (Sigma) and stirred for 6 h at room temperature. The resin was removed by filtration. Divalent Ca^2+ (CaCl2), Mg^2+ (MgCl2), and Zn^2+(ZnSO4), were then added in the iron-depleted medium at 22, 12, and 1 μg/ml respectively. Finally, the pH was adjusted to 7.3, and the medium was sterilized with a 0.2-μm filter. Regular MHBCA (i.e., not treated with Chelex®) was used to compare the inhibitory activity of conjugates in iron-sufficient conditions.
Minimal inhibitory concentrations (MICs) were performed using a broth microdilution technique according to the Clinical and Laboratory Standards Institute (CLSI) guidelines. MICs were determined in MHBCA and in ID-MHBCA. To check the impact of β-lactamases, MICs in the presence of a β-lactamase inhibitor were also determined. The inhibitor was homogenized at 2X the final concentration and added to the bacterial inoculum just before distributing cells into the wells containing the drug dilutions. The final concentration of each inhibitor was 4 μg/mL for clavulanic acid (tested against K. pneumoniae) and 200 μg/mL for 3-aminophenylboronic acid (tested against P. aeruginosa and A. baumannii).

SHV-1 = SHV-1 (Klebsiella pneumoniae, UniProt P0AD64); assay: biochemical
SHV-1, sequence (P0AD64 23-286): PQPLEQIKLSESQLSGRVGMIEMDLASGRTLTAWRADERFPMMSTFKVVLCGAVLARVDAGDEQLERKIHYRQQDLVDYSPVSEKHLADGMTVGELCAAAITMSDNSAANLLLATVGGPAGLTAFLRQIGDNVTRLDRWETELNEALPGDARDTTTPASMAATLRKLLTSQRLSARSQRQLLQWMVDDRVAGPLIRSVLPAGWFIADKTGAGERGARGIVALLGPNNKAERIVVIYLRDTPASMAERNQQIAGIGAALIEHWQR
Experimental: as §1, §2

E. coli MC4100 = assay: Bactericidal effect in the uptake assay (CFU counts); type: cell-based, Escherichia coli; conditions: for bacterial inhibition, less than the control without antibiotic: 4-h time point, MHBCA, inoculum 8.5 log10 CFU/mL; for bacterial inhibition, less than the control without antibiotic / dCFU (Δlog10 CFU/mL, count with drug minus growth control): 200 μM drug; for dCFU (Δlog10 CFU/mL, count with drug minus growth control): time 0 h, single replicates
From the text: The bactericidal effect determined at each time point was the difference in the concentration of bacteria in the assay tube with antibiotic and that measured in the growth control tube without drug (ΔLog10 CFU/mL). The normal distribution of the data was verified with the Shapiro–Wilk test and the statistical analysis was a comparison of repeated measures ANOVA (*p ≤ 0.05, **p ≤ 0.01, ***p ≤ 0.001) between each time point relatively to the 0-h time point.

[1] = Antibiotic stability in 4-h bacterial culture supernatant; type: physicochemical; conditions: for additional decrease of residual concentration in used supernatants versus medium: 4-h supernatants with and without iron, after 3 h; for percentage of antibiotic degradation in [bacterial supernatant]: 3 h
Experimental: For analysis, the determined concentration in the supernatant was adjusted for the degradation of the molecules measured in the stability control tests for each time point. The final net antibiotic concentration in the medium was calculated at each time point by adding the concentration caused by degradation to the concentration of the test antibiotic measured in the assay tubes containing bacteria. […] A second control was added for the β-lactam LOR and CEF to verify the impact of metabolic waste on the stability of the molecules. The supernatant from the 4-h growth control without antibiotic was collected by filtration 0.2 µm. LOR and CEF were then added to the filtrated supernatant at 200 µM, and degradation was measured after 3 h.

[2] = Escherichia coli, BW25113, BW25113, ID-MHBCA
[3] = Escherichia coli, BW25113, BW25113, MHBCA
[4] = supernatant of 4-hour culture in ID-MHBCA

AmpC (PDC-5), sequence (P24735 27-397 R79Q/T105A): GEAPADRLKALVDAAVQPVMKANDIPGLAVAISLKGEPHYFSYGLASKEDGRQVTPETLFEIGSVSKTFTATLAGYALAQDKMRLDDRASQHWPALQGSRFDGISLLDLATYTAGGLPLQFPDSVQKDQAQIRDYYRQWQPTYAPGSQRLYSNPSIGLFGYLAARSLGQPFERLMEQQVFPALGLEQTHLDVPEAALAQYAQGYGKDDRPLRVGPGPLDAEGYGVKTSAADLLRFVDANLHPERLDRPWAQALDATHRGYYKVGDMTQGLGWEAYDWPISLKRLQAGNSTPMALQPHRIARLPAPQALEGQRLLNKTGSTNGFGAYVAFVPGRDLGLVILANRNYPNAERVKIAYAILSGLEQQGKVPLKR

CC1(C)S[C@@H]2[C@H](NC(=O)[C@H](N)c3ccccc3)C(=O)N2[C@H]1C(=O)O [AMP, ampicillin, reference compound]
Ki (AmpC (PDC-5)): 15 ± 1 µM

CC1(C)SC2C(NC(=O)C(NC(=O)CN(CCCCNC(=O)c3cccc(O)c3O)C(=O)c3cccc(O)c3O)c3ccccc3)C(=O)N2C1C(=O)O (stereo not shown) [BAMP, bis-catechol (azotochelin)-ampicillin]
Ki (AmpC (PDC-5)): 19 ± 1 µM
MIC (E. coli BW25113; [2]): 0.024 µM (≈ 0.018 µg/mL)
MIC (E. coli BW25113; [3]): 0.05 µM (≈ 0.0375 µg/mL)
Ki (SHV-1): 184 ± 14 µM

O=C(CN(CCCCNC(=O)c1cccc(O)c1O)C(=O)c1cccc(O)c1O)NC(C(=O)NC1C(=O)N2C(C(=O)O)=C(Cl)CCC12)c1ccccc1 (stereo not shown) [BLOR, bis-catechol (azotochelin)-loracarbef]
AmpC (PDC-5) Vmax (AmpC (PDC-5); n = 2): 11 ± 1 µmol·mg/min
MIC (E. coli BW25113; [2]): 0.006 µM (≈ 0.0045 µg/mL)
MIC (E. coli BW25113; [3]): 0.012 µM (≈ 0.009 µg/mL)
bacterial inhibition, less than the control without antibiotic (E. coli MC4100): ~ 1.2 log10 CFU/mL
dCFU (Δlog10 CFU/mL, count with drug minus growth control) (E. coli MC4100; ID FALSE (MHBCA)): 0.04788 and 0.3837 and 0.3931
dCFU (E. coli MC4100; ID FALSE (MHBCA), time 8 h): -3.459
dCFU (E. coli MC4100; ID FALSE (MHBCA), time 10 h): -3.652
dCFU (E. coli MC4100; ID FALSE (MHBCA), time 24 h): -3.754
dCFU (Δlog10 CFU/mL, count with drug minus growth control) (E. coli MC4100; ID TRUE (ID-MHBCA)): -0.2509 and -0.1259 and 0.08749 and -0.2979 and -0.04259

N[C@@H](C(=O)N[C@@H]1C(=O)N2C(C(=O)O)=C(Cl)CS[C@H]12)c1ccccc1 [CEF, cefaclor, reference compound]
MIC (E. coli BW25113; [2]): 6.3 µM (≈ 2.32 µg/mL)
MIC (E. coli BW25113; [3]): 6.3 µM (≈ 2.32 µg/mL)
dCFU (Δlog10 CFU/mL, count with drug minus growth control) (E. coli MC4100; ID FALSE (MHBCA)): 0.07784 and -0.144 and -0.0313
dCFU (Δlog10 CFU/mL, count with drug minus growth control) (E. coli MC4100; ID TRUE (ID-MHBCA)): -0.00308 and -0.2509 and -0.2737
additional decrease of residual concentration in used supernatants versus medium [1]: ≤ 12%
percentage of antibiotic degradation in [bacterial supernatant] [1, 4]: 32%
percentage of antibiotic degradation in [bacterial supernatant] ([1]; supernatant of 4-hour culture in MHBCA): 36%

N[C@@H](C(=O)N[C@@H]1C(=O)N2C(C(=O)O)=C(Cl)CC[C@H]12)c1ccccc1 [LOR, loracarbef, reference compound]
Km (AmpC (PDC-5); Michaelis–Menten curves, n = 2, read-out: AmpC (PDC-5) Km): 22 ± 0.5 µM
AmpC (PDC-5) Vmax (AmpC (PDC-5); n = 2): 15 ± 0.3 µmol·mg/min
MIC (E. coli BW25113; BW25113, ID-MHBCA): 6.3 µM (≈ 2.2 µg/mL)
MIC (E. coli BW25113; BW25113, MHBCA): 6.3 µM (≈ 2.2 µg/mL)
bacterial inhibition, less than the control without antibiotic (E. coli MC4100): ~ 1.2 log10 CFU/mL
dCFU (Δlog10 CFU/mL, count with drug minus growth control) (E. coli MC4100; ID FALSE (MHBCA)): 0.02669 and 0.4114 and -0.0313
dCFU (Δlog10 CFU/mL, count with drug minus growth control) (E. coli MC4100; ID TRUE (ID-MHBCA)): -0.2509 and -0.1259 and -0.06378
SHV-1 Kcat (SHV-1; n = 3): 7.4 ± 0.5 s⁻¹
Km (SHV-1; read-out: SHV-1 Km, Michaelis–Menten curves, n = 3, 25 °C): 29 ± 9 µM
additional decrease of residual concentration in used supernatants versus medium [1]: ≤ 12%
percentage of antibiotic degradation in [bacterial supernatant] [1, 4]: 11%

O=C(CCC(=O)N(CCCCNC(=O)c1cccc(O)c1O)CCCNC(=O)c1cccc(O)c1O)NCCCCCN(O)C(=O)CCCC(=O)NC(C(=O)NC1C(=O)N2C(C(=O)O)=C(Cl)CSC12)c1ccccc1 (stereo not shown) [MCEF, mixed ligand bis-catechol-mono-hydroxamate-cefaclor]
MIC (E. coli BW25113; BW25113, ID-MHBCA): >200 µM
MIC (E. coli BW25113; [2]): > 200 µM
MIC (E. coli BW25113; [3]): 13 µM (≈ 14.1 µg/mL)
dCFU (Δlog10 CFU/mL, count with drug minus growth control) (E. coli MC4100; ID FALSE (MHBCA)): 0.157 and -0.07022 and 0.01569 and -0.00717
dCFU (Δlog10 CFU/mL, count with drug minus growth control) (E. coli MC4100; ID TRUE (ID-MHBCA)): 0.0557 and -0.2291 and -0.2621
